In US7205305B2, “Inhibitors of p38” (Vertex Pharmaceuticals Incorporated, priority 1996, dated 2007):
Blank lines part the entries; values can stand above or below the compound they belong to.

Experiments:
[1] = system: IL-1 production in whole blood; test: Inhibition of IL-1 production in LPS-stimulated whole blood ("WB"); format: cell-based, human; details: Homo sapiens
Method: (§1) Inhibitors were serially diluted in DMSO from a 20 mM stock. At least 6 serial dilutions were prepared. Then 4× inhibitor stocks were prepared by adding 4 μl of an inhibitor dilution to 1 ml of RPMI1640 medium/10% fetal bovine serum. The 4× inhibitor stocks contained inhibitor at concentrations of 80 μM, 32 μM, 12.8 μM, 5.12 μM, 2.048 μM, 0.819 μM, 0.328 μM, 0.131 μM, 0.052 μM, 0.021 μM etc. The 4× inhibitor stocks were pre-warmed at 37° C. until use.
(§2) Alternatively, whole blood containing an anti-coagulant was used directly in the assay.
(§3) We placed 100 μl of cell suspension or whole blood in each well of a 96-well cell culture plate. Then we added 50 μl of the 4× inhibitor stock to the cells. Finally, we added 50 μl of a lipopolysaccharide (LPS) working stock solution (16 ng/ml in cell culture medium) to give a final concentration of 4 ng/ml LPS in the assay. The total assay volume of the vehicle control was also adjusted to 200 μl by adding 50 μl cell culture medium. The PBMC cells or whole blood were then incubated overnight (for 12–15 hours) at 37° C./5% CO2 in a humidified atmosphere.
(§4) The next day the cells were mixed on a shaker for 3–5 minutes before centrifugation at 500×g for 5 minutes. Cell culture supernatants were harvested and analyzed by ELISA for levels of IL-1b (R & D Systems, Quantikine kits, #DBL50), TNF-α (BioSource, #KHC3012), IL-6 (Endogen, #EH2-IL6) and IL-8 (Endogen, #EH2-IL8) according to the instructions of the manufacturer. The ELISA data were used to generate dose-response curves from which IC50 values were derived.

[2] = system: TNF production in LPS-stimulated PBMCs; test: Inhibition of TNF production in LPS-stimulated PBMCs ("cell"); format: cell-based, human; details: Homo sapiens, PBMC
Procedure, shortened: (§5)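 Cytokine levels (IL-1β, TNF-α) in culture supernatants quantified by ELISA, with IC50 taken from dose-response curves. Fresh human PBMCs in RPMI1640 with 10% FBS received serially diluted compound plus LPS (4 ng/ml final) and were cultured 12–15 h at 37 °C, 5% CO2.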

[3] = system: IL-6 production in whole blood; test: Inhibition of IL-6 production in LPS-stimulated whole blood ("WB"); format: cell-based, human; details: Homo sapiens
Method: as §1, §2, §3, §4

activated p38 = activated p38 (Homo sapiens, UniProt Q16539); test: Inhibition of phosphorylation of EGF receptor peptide ("kinase"); format: biochemical; details: inhibition of phosphorylation of EGF receptor peptide by activated p38
Procedure, shortened: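 Activated p38 was preincubated with inhibitor for 15 min at room temperature in 100 mM HEPES pH 7.6, 10 mM MgCl2, 25 mM β-glycerophosphate, 10% glycerol, 5% DMSO final. Reaction used 200 μM EGF receptor peptide and 100 μM ATP for 30 min at 30° C. TFA-quenched phosphopeptide was quantified by reverse-phase HPLC.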

[4] = system: IL-1 production in LPS-stimulated PBMCs; test: Inhibition of IL-1 production in LPS-stimulated PBMCs ("cell"); format: cell-based, human; details: Homo sapiens, PBMC
Procedure, shortened: as §5

[5] = system: TNF production in whole blood; test: Inhibition of TNF production in LPS-stimulated whole blood ("WB"); format: cell-based, human; details: Homo sapiens
Method: as §1, §2, §3, §4

activated p38, sequence (Q16539 whole entry): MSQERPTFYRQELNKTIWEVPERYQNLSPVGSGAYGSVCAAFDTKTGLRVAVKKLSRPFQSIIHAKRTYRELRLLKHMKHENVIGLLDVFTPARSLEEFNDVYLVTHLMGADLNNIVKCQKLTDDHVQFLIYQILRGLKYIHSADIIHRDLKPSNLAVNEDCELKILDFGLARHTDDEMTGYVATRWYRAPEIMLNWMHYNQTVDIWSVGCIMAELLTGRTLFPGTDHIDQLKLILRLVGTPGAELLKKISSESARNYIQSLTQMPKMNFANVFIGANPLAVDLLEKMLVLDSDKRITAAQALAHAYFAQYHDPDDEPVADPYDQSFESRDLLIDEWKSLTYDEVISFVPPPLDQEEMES

Compound: Cc1cc(F)ccc1-c1cccc(C(C(N)=O)c2c(Cl)cccc2Cl)n1 (stereo not drawn) [Compound 363]
IC50 [1]: ≥ 500 nM
IC50 [2]: 100 to 500 nM
IC50 [3]: ≥ 500 nM
IC50 (activated p38): ≤ 100 nM
IC50 [4]: ≤ 100 nM
IC50 [5]: ≥ 500 nM

Compound: NC(=O)C(c1cccc(-c2ccc(Cl)cc2Cl)n1)c1c(Cl)cccc1Cl (stereo not drawn) [Compound 325]
IC50 [1]: ≥ 500 nM
IC50 [2]: 100 to 500 nM
IC50 [3]: ≥ 500 nM
IC50 (activated p38): ≤ 100 nM
IC50 [4]: ≤ 100 nM
IC50 [5]: ≥ 500 nM

Compound: Cc1cc(F)ccc1-c1cccc(N(C(N)=O)c2cc3c(cc2Cl)OCO3)n1 [Compound 411]
IC50 [1]: ≥ 500 nM
IC50 [2]: ≤ 100 nM
IC50 [3]: ≥ 500 nM
IC50 (activated p38): ≤ 100 nM
IC50 [4]: ≤ 100 nM
IC50 [5]: ≥ 500 nM

Compound: O=C(CCl)Nc1ccc(C2=C3C=CC(Sc4ccc(F)cc4)=NN3CNC2=O)c(Cl)c1 [Compound 141]
IC50 [1]: ≥ 500 nM
IC50 [2]: ≤ 100 nM
IC50 [3]: ≥ 500 nM
IC50 (activated p38): ≤ 100 nM
IC50 [4]: ≤ 100 nM
IC50 [5]: ≥ 500 nM

Compound: COc1ccc(C2=C3C=CC(Sc4ccc(F)cc4)=NN3CNC2=O)c(Cl)c1 [Compound 139]
IC50 [1]: ≥ 500 nM
IC50 [2]: ≥ 500 nM
IC50 [3]: ≥ 500 nM
IC50 (activated p38): ≤ 100 nM
IC50 [4]: ≤ 100 nM
IC50 [5]: ≥ 500 nM

Compound: Cc1ccc(Sc2ccc3c(-c4c(Cl)cccc4Cl)c(=O)ncn3n2)c(C)c1 [Compound 32]
IC50 [1]: ≥ 500 nM
IC50 [2]: 100 to 500 nM
IC50 [3]: ≥ 500 nM
IC50 (activated p38): 100 to 1000 nM
IC50 [4]: ≥ 500 nM
IC50 [5]: ≥ 500 nM

Compound: NC(=O)C(c1cccc(-c2ccc(F)cc2)n1)c1c(Cl)cccc1Cl (stereo not drawn) [Compound 309]
IC50 [1]: ≥ 500 nM
IC50 [2]: 100 to 500 nM
IC50 [3]: ≥ 500 nM
IC50 (activated p38): 100 to 1000 nM
IC50 [4]: 100 to 500 nM
IC50 [5]: ≥ 500 nM

Compound: NC(=O)C(c1ccc(Sc2ccccc2)cn1)c1c(Cl)cccc1Cl (stereo not drawn) [Compound 201]
IC50 [1]: ≥ 500 nM
IC50 [2]: ≥ 500 nM
IC50 [3]: ≥ 500 nM
IC50 (activated p38): 100 to 1000 nM
IC50 [4]: ≥ 500 nM
IC50 [5]: ≤ 250 nM

Compound: O=C1C(c2c(Cl)cccc2Cl)=C2C=CC(Sc3ccc(F)cc3)=NN2CN1CO [Compound 138]
IC50 [1]: ≥ 500 nM
IC50 [2]: 100 to 500 nM
IC50 [3]: ≤ 250 nM
IC50 (activated p38): 100 to 1000 nM
IC50 [4]: ≤ 100 nM
IC50 [5]: ≥ 500 nM

IC50 [1]: ≥ 500 nM
IC50 [3]: 250 to 500 nM
IC50 (activated p38): ≤ 100 nM
IC50 [5]: 250 to 500 nM
Compound: O=C1NCN2N=C(Sc3ccc(F)cc3)C=CC2=C1c1c(Cl)cccc1Cl [Compound 103]
IC50 [2]: ≤ 100 nM
IC50 [4]: ≤ 100 nM

Compound: NC(=O)C(c1cccc(-c2cccc3ccccc23)n1)c1c(Cl)cccc1Cl (stereo not drawn) [Compound 362]
IC50 [1]: ≥ 500 nM
IC50 [2]: 100 to 500 nM
IC50 [3]: ≥ 500 nM
IC50 (activated p38): ≤ 100 nM
IC50 [4]: 100 to 500 nM
IC50 [5]: ≥ 500 nM

Compound: CC(C)(C)OC(=O)Nc1ccccc1SC1=NN2CNC(=O)C(c3c(Cl)cccc3Cl)=C2C=C1 [Compound 112]
IC50 [1]: ≥ 500 nM
IC50 [2]: ≥ 500 nM
IC50 [3]: ≥ 500 nM
IC50 (activated p38): 100 to 1000 nM
IC50 [4]: 100 to 500 nM
IC50 [5]: ≥ 500 nM

Compound: Cc1cccc(-c2cccc(C(C(N)=O)c3c(Cl)cccc3Cl)n2)c1 (stereo not drawn) [Compound 312]
IC50 [1]: ≥ 500 nM
IC50 [2]: ≥ 500 nM
IC50 [3]: ≥ 500 nM
IC50 (activated p38): ≤ 100 nM
IC50 [4]: 100 to 500 nM
IC50 [5]: ≥ 500 nM

Compound: NC(=O)C(c1cccc(-c2ccccc2CO)n1)c1c(Cl)cccc1Cl (stereo not drawn) [Compound 302]
IC50 [1]: ≥ 500 nM
IC50 [2]: 100 to 500 nM
IC50 [3]: ≥ 500 nM
IC50 (activated p38): ≤ 100 nM
IC50 [4]: ≤ 100 nM
IC50 [5]: ≥ 500 nM

Compound: Cc1cc(F)ccc1-c1cccc(N(C(N)=O)c2c(Cl)cccc2Cl)n1 [Compound 409]
IC50 [1]: ≥ 500 nM
IC50 [2]: ≤ 100 nM
IC50 [3]: 250 to 500 nM
IC50 (activated p38): ≤ 100 nM
IC50 [4]: ≤ 100 nM
IC50 [5]: ≥ 500 nM
